In patent publication US20180148418A1, “AMIDO-SUBSTITUTED CYCLOHEXANE DERIVATIVES” (Bayer Pharma Aktiengesellschaft, priority 2015, published 2018):
pIC50: −log10 of the molar value.

Columns and labels:
[1] = system: HEK293 cells cotransfected with the FOP control vector; assay: HEK293 FOP assay (control reporter with non-functional TCF elements); format: cell-based; settings: Homo sapiens, 16 hours
Procedure, shortened: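 Compound series from 50 μM down to 15 nM, prediluted in DMSO then 50-fold into CAFTY buffer (pH 7.4, 2 mM Ca2+, 0.01% BSA), tested alongside TOP cells on a Geneticin-selected HEK293 FOP line whose TCF elements are replaced by a random sequence; recombinant human Wnt-3a applied at 2500-5 ng/ml.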

TNKS1 = target: T1, TNKS1 (Homo sapiens, UniProt O95271); assay: TNKS1 Assay B (auto-parsylation, [3H]-NAD+ SPA); format: biochemical; settings: 6 nM TNKS1, auto-parsylation, over night at room temperature
T1 construct: purchased BPS Bioscience, San Diego, USA 80579 (TNKS1 Histone Ribosylation Assay Kit)
T1 sequence (O95271 1-1327): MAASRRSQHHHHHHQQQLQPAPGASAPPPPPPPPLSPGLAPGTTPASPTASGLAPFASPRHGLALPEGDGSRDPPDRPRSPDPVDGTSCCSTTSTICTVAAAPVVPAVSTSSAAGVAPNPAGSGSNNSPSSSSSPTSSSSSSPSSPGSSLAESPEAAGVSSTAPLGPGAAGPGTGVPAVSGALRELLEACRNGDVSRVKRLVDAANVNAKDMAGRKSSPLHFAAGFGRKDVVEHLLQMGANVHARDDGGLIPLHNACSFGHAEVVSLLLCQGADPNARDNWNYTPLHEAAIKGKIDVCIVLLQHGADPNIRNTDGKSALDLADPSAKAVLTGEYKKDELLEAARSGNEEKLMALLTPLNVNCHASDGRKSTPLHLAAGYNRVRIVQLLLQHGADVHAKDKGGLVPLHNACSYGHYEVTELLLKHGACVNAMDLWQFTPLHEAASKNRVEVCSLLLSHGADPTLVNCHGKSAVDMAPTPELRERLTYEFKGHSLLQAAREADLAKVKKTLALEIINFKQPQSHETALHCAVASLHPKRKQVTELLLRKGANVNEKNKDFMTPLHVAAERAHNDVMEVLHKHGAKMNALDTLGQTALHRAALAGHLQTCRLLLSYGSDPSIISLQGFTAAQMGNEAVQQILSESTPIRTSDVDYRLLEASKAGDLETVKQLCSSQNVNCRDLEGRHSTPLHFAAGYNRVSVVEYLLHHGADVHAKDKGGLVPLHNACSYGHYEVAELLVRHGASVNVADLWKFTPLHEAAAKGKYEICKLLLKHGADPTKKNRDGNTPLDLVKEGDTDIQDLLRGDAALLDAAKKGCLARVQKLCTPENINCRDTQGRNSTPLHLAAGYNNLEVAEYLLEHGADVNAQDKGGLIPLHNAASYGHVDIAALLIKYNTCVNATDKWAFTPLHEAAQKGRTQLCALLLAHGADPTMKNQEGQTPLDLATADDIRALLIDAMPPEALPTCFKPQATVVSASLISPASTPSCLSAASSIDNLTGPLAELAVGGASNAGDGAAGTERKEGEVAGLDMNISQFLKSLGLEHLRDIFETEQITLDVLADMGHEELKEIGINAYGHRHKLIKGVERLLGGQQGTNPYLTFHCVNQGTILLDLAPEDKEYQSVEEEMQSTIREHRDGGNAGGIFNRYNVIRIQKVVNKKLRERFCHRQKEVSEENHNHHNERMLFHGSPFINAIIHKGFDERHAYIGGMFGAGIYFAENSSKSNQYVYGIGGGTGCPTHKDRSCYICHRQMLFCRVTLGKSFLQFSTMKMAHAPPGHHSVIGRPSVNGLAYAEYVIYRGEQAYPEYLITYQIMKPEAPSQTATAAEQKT
Experimental: The potency of selected compounds according to the invention was assessed applying a modified in vitro inhibition assay. Here, the TNKS1 catalyzed NAD^+-dependent ribosylation of the enzyme itself (auto-parsylation) was detected using [^3H]-NAD^+ as substrate and applying the scintillation proximity assay (SPA) method to detect tritium-labeled, parsylated TNKS1. The intensity of the readout signal is proportional to the incorporated [^3H]-NAD^+. Inhibition of TNKS1 leads to a decreased incorporation of [^3H]-NAD^+ and consequently to a lower readout signal intensity. The concentration of a test compound which inhibits the enzyme activity by 50% (corresponds to half of the normed readout signal intensity) is reported as IC50.
Protocol Auto-Parsylation Assay
The assay was conducted in a 96 well MTP format with the identical TNKS1 enzyme sample and NAD^+ sample as in the histone ribosylation assay with the following modifications: TNKS1 enzyme sample was diluted with a modified assay buffer (50 mM MES pH 7.0, 1 mM DTT, 0.01% Triton X-100) to a final concentration of 6 nM TNKS1 and 10×NAD^+ solution was diluted with the modified assay buffer (s. above) to a final 0.445×NAD^+ solution doped with 100 Bq/μl [^3H]-NAD^+[Catalog #NET443H050UC, Perkin Elmer, Waltham, Mass., USA]. Substrate solution (10 μl) was incubated with different test compound concentrations (2.5 ul in 10% DMSO in modified assay buffer) or control (2.5 ul 10% DMSO in modified assay buffer only) and enzyme (10 μl) over night at room temperature. Incorporated tritium was measured after addition of 50 μl SPA beads (1 mg/ml) [Catalog #RPNQ0095 20 mg/ml, Perkin Elmer, Waltham, Mass., USA; diluted 1:10 with Dulbecco's phosphate buffered saline, PBS Catalog #D8537, Sigma-Aldrich, Steinheim, Germany] and detection of the photon emission with a beta count plate reader [Wallac MicroBeta®, Perkin Elmer, Waltham, Mass., USA].

Row | SMILES | pIC50 (TNKS1) | pIC50 [1]
1 | Cc1cnc2c(C(=O)N[C@H]3CC[C@@]4(CCN(c5ccc(F)cc5Cl)C4=O)CC3)cnn2c1 [Example 137, N-[(trans)-2-(2-chloro-4-fluorophenyl)-1-oxo-2-azaspiro[4.5]dec-8-yl]-6-methylpyrazolo[1,5-a]pyrimidine-3-carboxamide] | 7.96 | ≤ 4.30
2 | Cc1c(C(C)N(C)C)cnc2c(C(=O)N[C@H]3CC[C@H](C(=O)Nc4ccc(F)cc4Cl)CC3)cnn12 (single isomer, unassigned) [Example 56, N-{trans-4-[(2-chloro-4-fluorophenyl)carbamoyl]cyclohexyl}-6-[1-(dimethylamino)ethyl]-7-methylpyrazolo[1,5-a]pyrimidine-3-carboxamide] | 6.08 | ≤ 4.30
3 | O=C(NC12CCC(C(=O)Nc3cnccc3Cl)(CC1)CC2)c1cnn2cccnc12 [Example 120, N-{4-[(4-chloropyridin-3-yl)carbamoyl]bicyclo[2.2.2]oct-1-yl}pyrazolo[1,5-a]pyrimidine-3-carboxamide] | 6.68 | 5.15
4 | CN1CCN(c2ccn3ncc(C(=O)N[C@H]4CC[C@H](C(=O)Nc5ccc(F)cc5Cl)CC4)c3n2)CC1 [Example 109] | 7.21 | ≤ 4.30
5 | O=C(NC12CCC(C(=O)Nc3c(F)cc(F)cc3Cl)(CC1)CC2)c1cnc2cccnn12 [Example 123, N-{4-[(2-chloro-4,6-difluorophenyl)carbamoyl]bicyclo[2.2.2]oct-1-yl}imidazo[1,2-b]pyridazine-3-carboxamide] | 6.00 | ≤ 4.30
6 | O=C(NC12CCC(C(=O)Nc3c(F)cc(F)cc3Cl)(CC1)CC2)c1cnn2cccnc12 [Example 119, N-{4-[(2-chloro-4,6-difluorophenyl)carbamoyl]bicyclo[2.2.2]oct-1-yl}pyrazolo[1,5-a]pyrimidine-3-carboxamide] | 6.25 | ≤ 4.30
7 | CCN(c1ccc(F)cc1Cl)C(=O)[C@H]1CC[C@H](NC(=O)c2cnn3cccnc23)CC1 [Example 154, N-{trans-4-[(2-chloro-4-fluorophenyl)(ethyl)carbamoyl]cyclohexyl}pyrazolo[1,5-a]pyrimidine-3-carboxamide] | 7.06 | ≤ 4.30
8 | O=C(NC12CCC(C(=O)Nc3ccc(F)cc3Cl)(CC1)CC2)c1cnn2cccnc12 [Example 117, N-{4-[(2-chloro-4-fluorophenyl)carbamoyl]bicyclo[2.2.2]oct-1-yl}pyrazolo[1,5-a]pyrimidine-3-carboxamide] | 6.47 | ≤ 4.30

The next lines start with results.

Row | pIC50 (TNKS1) | SMILES | pIC50 [1]
9 | 6.48 | Cc1cc(C)n2ncc(C(=O)N[C@H]3CC[C@H](C(=O)Nc4ccncc4Cl)CC3)c2n1 [Example 102, N-{trans-4-[(3-chloropyridin-4-yl)carbamoyl]cyclohexyl}-5,7-dimethylpyrazolo[1,5-a]pyrimidine-3-carboxamide] | ≤ 4.30
10 | 5.89 | CC(C)(O)CNC(=O)c1nc[nH]c1C(=O)N[C@H]1CC[C@H](C(=O)Nc2cc(N3CCOCC3)ccc2Cl)CC1 [Example 94, N^5-(trans-4-{[2-chloro-5-(morpholin-4-yl)phenyl]carbamoyl}cyclohexyl)-N^4-(2-hydroxy-2-methylpropyl)-1H-imidazole-4,5-dicarboxamide] | ≤ 4.30
11 | 7.31 | CCOC(=O)c1cnc2c(C(=O)N[C@H]3CC[C@H](C(=O)Nc4ccc(F)cc4Cl)CC3)cnn2c1 [Example 106, ethyl 3-({trans-4-[(2-chloro-4-fluorophenyl)carbamoyl]cyclohexyl}carbamoyl)pyrazolo[1,5-a]pyrimidine-6-carboxylate] | ≤ 4.30
12 | 6.28 | O=C(N[C@H]1CC[C@H](C(=O)Nc2ccncc2Cl)CC1)c1cnc2cccnn12 [Example 103, N-{trans-4-[(3-chloropyridin-4-yl)carbamoyl]cyclohexyl}imidazo[1,2-b]pyridazine-3-carboxamide] | 4.57
13 | 6.82 | CNC(=O)c1nc[nH]c1C(=O)N[C@H]1CC[C@H](C(=O)Nc2cc(OC)c(OC)cc2Cl)CC1 [Example 5, N^5-{trans-4-[(2-chloro-4,5-dimethoxyphenyl)carbamoyl]cyclohexyl}-N^4-methyl-1H-imidazole-4,5-dicarboxamide] | ≤ 4.30
14 | 6.82 | COCc1cc(C)n2ncc(C(=O)N[C@H]3CC[C@H](C(=O)Nc4c(F)cc(F)cc4Cl)CC3)c2n1 [Example 112, N-{trans-4-[(2-chloro-4,6-difluorophenyl)carbamoyl]cyclohexyl}-5-(methoxymethyl)-7-methylpyrazolo[1,5-a]pyrimidine-3-carboxamide] | ≤ 4.30
15 | 7.35 | O=C(NCC1CCCO1)c1nc[nH]c1C(=O)N[C@H]1CC[C@H](C(=O)Nc2cc(F)ccc2Cl)CC1 (stereo partly drawn) [Example 129, N^5-{trans-4-[(2-chloro-5-fluorophenyl)carbamoyl]cyclohexyl}-N^4-(tetrahydrofuran-2-ylmethyl)-1H-imidazole-4,5-dicarboxamide] | 4.41
16 | 7.17 | COCC(C)NC(=O)c1nc[nH]c1C(=O)N[C@H]1CC[C@H](C(=O)Nc2cnccc2Cl)CC1 (stereo partly drawn) [Example 99, N^5-{trans-4-[(4-chloropyridin-3-yl)carbamoyl]cyclohexyl}-N^4-(1-methoxypropan-2-yl)-1H-imidazole-4,5-dicarboxamide] | 4.70
17 | 6.10 | O=C(NCCC1CC1)c1nc[nH]c1C(=O)N[C@H]1CC[C@H](C(=O)Nc2cc(N3CCOCC3)ccc2Cl)CC1 [Example 93, N^5-(trans-4-{[2-chloro-5-(morpholin-4-yl)phenyl]carbamoyl}cyclohexyl)-N^4-(2-cyclopropylethyl)-1H-imidazole-4,5-dicarboxamide] | 4.92
18 | 7.40 | CNC(=O)c1nc[nH]c1C(=O)N[C@H]1CC[C@H](C(=O)Nc2cnccc2Cl)CC1 [Example 96, N^5-{trans-4-[(4-chloropyridin-3-yl)carbamoyl]cyclohexyl}-N^4-methyl-1H-imidazole-4,5-dicarboxamide] | 4.74
19 | 7.19 | O=C(N[C@H]1CC[C@H](C(=O)Nc2cc(F)c(F)cc2Cl)CC1)c1cnc2cccnn12 [Example 132, N-{trans-4-[(2-chloro-4,5-difluorophenyl)carbamoyl]cyclohexyl}imidazo[1,2-b]pyridazine-3-carboxamide] | ≤ 4.30
